Data reported in patent publication US20160120863A1, “SLC2A TRANSPORTER INHIBITORS” (IOMET PHARMA LTD., priority 2013, published 2016).

How the values were obtained:
Format in all cases: cell-based
human GLUT2 = target: T1, human GLUT2 (Homo sapiens, UniProt P11168); assay: [3H]-deoxy-D-glucose uptake assay, GLUT2; conditions: [3H]-deoxy-D-glucose uptake in HEK293 cells stably expressing human GLUT2
T1 construct: expressed in transfected cells
T1 sequence (P11168 1-524): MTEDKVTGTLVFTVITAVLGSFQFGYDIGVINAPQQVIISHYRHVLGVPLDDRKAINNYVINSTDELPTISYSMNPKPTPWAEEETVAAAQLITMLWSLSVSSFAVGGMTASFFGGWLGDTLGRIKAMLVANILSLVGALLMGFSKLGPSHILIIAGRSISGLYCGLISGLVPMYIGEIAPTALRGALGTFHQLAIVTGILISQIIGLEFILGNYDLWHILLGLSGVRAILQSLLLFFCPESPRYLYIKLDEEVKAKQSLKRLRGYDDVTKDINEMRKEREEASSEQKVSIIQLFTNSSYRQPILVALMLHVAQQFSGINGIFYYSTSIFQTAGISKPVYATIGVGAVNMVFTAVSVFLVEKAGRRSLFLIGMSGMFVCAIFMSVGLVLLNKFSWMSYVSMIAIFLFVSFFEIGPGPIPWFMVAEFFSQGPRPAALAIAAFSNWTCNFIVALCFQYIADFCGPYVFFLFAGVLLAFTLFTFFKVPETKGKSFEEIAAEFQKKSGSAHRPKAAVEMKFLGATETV
In short: (§1)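 HEK293 cells stably overexpressing human GLUT1 or GLUT2, seeded at 60,000 per well, treated with compounds in glucose-free uptake buffer for 30 min at 37 °C. [3H]-deoxy-D-glucose uptake quantified by scintillation counting after ice-cold PBS washes; IC50 determined.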

human GLUT4 = target: T2, human GLUT4 (Homo sapiens, UniProt P14672); assay: [3H]-deoxy-D-glucose uptake assay, GLUT4; conditions: [3H]-deoxy-D-glucose uptake in HEK293 cells stably expressing human GLUT4
T2 construct: expressed in transfected cells
T2 sequence (P14672 1-509): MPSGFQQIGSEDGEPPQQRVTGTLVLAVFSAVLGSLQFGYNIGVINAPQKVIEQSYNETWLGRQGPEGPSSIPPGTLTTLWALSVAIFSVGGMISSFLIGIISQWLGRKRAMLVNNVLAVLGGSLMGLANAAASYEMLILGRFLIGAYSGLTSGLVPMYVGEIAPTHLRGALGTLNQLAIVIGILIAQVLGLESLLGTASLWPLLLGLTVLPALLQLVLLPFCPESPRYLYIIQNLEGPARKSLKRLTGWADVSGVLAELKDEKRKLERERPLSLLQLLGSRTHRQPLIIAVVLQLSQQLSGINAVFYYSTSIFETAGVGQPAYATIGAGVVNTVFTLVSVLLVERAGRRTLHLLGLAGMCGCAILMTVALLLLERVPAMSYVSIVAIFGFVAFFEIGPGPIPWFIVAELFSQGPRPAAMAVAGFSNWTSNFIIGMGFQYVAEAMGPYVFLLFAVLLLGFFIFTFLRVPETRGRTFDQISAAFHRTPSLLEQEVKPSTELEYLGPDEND
Procedure: (§2) HEK293 cells were engineered to stably express either human GLUT1, GLUT2, GLUt3 or GLUT4 by transfection with the pReceiver-Lv105 plasmid, containing either hGLUT1, hGLUT2, hGLUT3, or hGLUT4 gene constructs with lipofectamine 2000, hGLUT1- hGLUT2- hGLUT3- or hGLUT4-overexpressing polyclonal populations were isolated under purinomycin selective pressure (1 μg/ml) and maintained in Dulbecco's modified Eagle's medium supplemented with 1 μg/ml purinomycin+10% foetal bovine serum (FBS).
(§3) 60,000 cells per well were seeded overnight into poly-D-lysine coasted 96-well plates. Following media removal, cells were washed twice in warm glucose-free uptake buffer (25 mM HEPES/KOH pH 7.4, 125 mM NaCl, 4.8 mM KCl, 1.2 mM MgSO4, 1.2 mM CaCl2, 1.2 mM KH2PO4). 90 μl of test compounds were added in glucose-free uptake buffer and cells were incubated at 37° C. for 30 min. 10 μl of [3H]-deoxy-D-glucose (0.25 μCi, 125 μM final assay concentration) was then added per well in glucose-free uptake buffer and uptake was allowed to proceed at 37° C. for 30 min.
(§4) Cells were then washed twice with ice-cold PBS and 100 μl of Microscint-20 was added per well. Glucose uptake was quantified with a scintillation counter. The half maximal inhibitory concentration (IC50) (a measure of the effectiveness of the test compound in inhibiting glucose uptake) was determined.

human GLUT1 = target: T3, human GLUT1 (Homo sapiens, UniProt P11166); assay: [3H]-deoxy-D-glucose uptake assay, GLUT1; conditions: [3H]-deoxy-D-glucose uptake in HEK293 cells stably expressing human GLUT1
T3 construct: expressed in transfected cells
T3 sequence (P11166 1-492): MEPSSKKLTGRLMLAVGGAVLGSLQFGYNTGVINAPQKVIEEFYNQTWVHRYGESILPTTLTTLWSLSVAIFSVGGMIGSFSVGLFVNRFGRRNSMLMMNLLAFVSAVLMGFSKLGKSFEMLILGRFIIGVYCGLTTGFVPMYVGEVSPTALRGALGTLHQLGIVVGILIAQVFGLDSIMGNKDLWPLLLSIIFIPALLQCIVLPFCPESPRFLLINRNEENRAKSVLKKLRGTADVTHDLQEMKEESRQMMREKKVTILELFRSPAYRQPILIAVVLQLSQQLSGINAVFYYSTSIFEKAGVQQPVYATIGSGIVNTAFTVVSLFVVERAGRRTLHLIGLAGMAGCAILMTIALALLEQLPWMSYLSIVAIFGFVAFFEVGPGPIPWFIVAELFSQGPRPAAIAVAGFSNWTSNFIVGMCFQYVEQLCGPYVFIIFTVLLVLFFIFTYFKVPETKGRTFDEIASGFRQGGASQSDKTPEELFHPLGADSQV
In short: as §1

human GLUT3 = target: T4, human GLUT3 (Homo sapiens, UniProt P11169); assay: [3H]-deoxy-D-glucose uptake assay, GLUT3; conditions: [3H]-deoxy-D-glucose uptake in HEK293 cells stably expressing human GLUT3
T4 construct: expressed in transfected cells
T4 sequence (P11169 1-496): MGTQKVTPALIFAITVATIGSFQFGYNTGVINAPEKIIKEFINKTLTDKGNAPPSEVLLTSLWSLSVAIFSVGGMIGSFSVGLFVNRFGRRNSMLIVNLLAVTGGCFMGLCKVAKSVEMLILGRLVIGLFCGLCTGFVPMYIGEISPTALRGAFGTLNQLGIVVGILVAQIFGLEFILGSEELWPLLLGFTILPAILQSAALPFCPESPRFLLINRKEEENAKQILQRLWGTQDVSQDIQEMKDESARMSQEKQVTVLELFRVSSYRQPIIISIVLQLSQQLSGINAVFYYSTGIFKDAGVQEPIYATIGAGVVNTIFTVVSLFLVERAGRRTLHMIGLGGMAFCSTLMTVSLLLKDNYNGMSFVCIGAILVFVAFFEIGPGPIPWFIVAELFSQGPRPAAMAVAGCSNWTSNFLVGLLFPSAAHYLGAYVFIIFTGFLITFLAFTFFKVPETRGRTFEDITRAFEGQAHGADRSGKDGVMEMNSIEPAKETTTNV
Procedure: as §2, §3, §4

Structure (SMILES)	GLUT2 pIC50 (human GLUT2)	GLUT4 pIC50 (human GLUT4)	GLUT1 pIC50 (human GLUT1)	GLUT3 pIC50 (human GLUT3)
CCCS(=O)(=O)N(C)c1ccc2nc(-c3ccc(Cl)cc3)c(CN3CCN(C(C)=O)CC3)n2c1 [Compound 341]	+− (pIC50 < 4.00)	+++ (pIC50 ≧ 6.00)	+++ (pIC50 ≧ 6.00)	+++ (pIC50 ≧ 6.00)
CN(c1ccc2nc(-c3ccc(Cl)cc3Cl)c(CN3CCn4ncnc4C3)n2c1)S(C)(=O)=O [Compound 346]	++ (pIC50 5.00-5.99)	+++ (pIC50 ≧ 6.00)	+++ (pIC50 ≧ 6.00)	+++ (pIC50 ≧ 6.00)
CC(=O)N1CCN(Cc2c(-c3ccc(Cl)cc3)nc3ccc(S(=O)(=O)N(C)C)cn23)CC1 [Compound 350]	++ (pIC50 5.00-5.99)	+++ (pIC50 ≧ 6.00)	+++ (pIC50 ≧ 6.00)	+++ (pIC50 ≧ 6.00)
CNS(=O)(=O)c1ccc2nc(-c3ccc(Cl)cc3)c(CN3CCN(C(C)=O)CC3)n2c1 [Compound 351]	++ (pIC50 5.00-5.99)	+++ (pIC50 ≧ 6.00)	+++ (pIC50 ≧ 6.00)	+++ (pIC50 ≧ 6.00)
CCN(c1ccc2nc(-c3ccc(Cl)cc3)c(CN3CCN(C(C)=O)CC3)n2c1)S(C)(=O)=O [Compound 353]	++ (pIC50 5.00-5.99)	+++ (pIC50 ≧ 6.00)	+++ (pIC50 ≧ 6.00)	+++ (pIC50 ≧ 6.00)
CN(c1ccc2nc(-c3ccc(Cl)cc3Cl)c(CN3CCNC(=O)C3)n2c1)S(C)(=O)=O [Compound 355]	+++ (pIC50 ≧ 6.00)	+++ (pIC50 ≧ 6.00)	+++ (pIC50 ≧ 6.00)	+++ (pIC50 ≧ 6.00)
CS(=O)(=O)Nc1ccc2nc(-c3ccc(Cl)cc3Cl)c(CN3CCN(C(=O)c4ccnnc4)CC3)n2c1 [Compound 356]	+++ (pIC50 ≧ 6.00)	+++ (pIC50 ≧ 6.00)	+++ (pIC50 ≧ 6.00)	+++ (pIC50 ≧ 6.00)
CS(=O)(=O)Nc1ccc2nc(-c3ccc(Cl)cc3Cl)c(CN3CCN(C(=O)c4ccc(F)cc4)CC3)n2c1 [Compound 360]	++ (pIC50 5.00-5.99)	+++ (pIC50 ≧ 6.00)	+++ (pIC50 ≧ 6.00)	+++ (pIC50 ≧ 6.00)
CC(C)(O)C(=O)N1CCN(Cc2c(-c3ccc(Cl)cc3Cl)nc3ccc(NS(C)(=O)=O)cn23)CC1 [Compound 361]	++ (pIC50 5.00-5.99)	+++ (pIC50 ≧ 6.00)	+++ (pIC50 ≧ 6.00)	+++ (pIC50 ≧ 6.00)
CN(c1ccc2nc(-c3ccc(Cl)cc3Cl)c(CN3CCN(C(=O)c4ccc(F)cc4)CC3)n2c1)S(C)(=O)=O [Compound 363]	+++ (pIC50 ≧ 6.00)	+++ (pIC50 ≧ 6.00)	+++ (pIC50 ≧ 6.00)	+++ (pIC50 ≧ 6.00)
CC(=O)N1CCN(Cc2c(-c3ccc(Cl)cc3)nc3ccc(N(C(C)C)S(C)(=O)=O)cn23)CC1 [Compound 365]	++ (pIC50 5.00-5.99)	+++ (pIC50 ≧ 6.00)	+++ (pIC50 ≧ 6.00)	+++ (pIC50 ≧ 6.00)
CC(C)c1cn2c(CN3CCOCC3)c(-c3ccc(Cl)cc3Cl)nc2cn1 [Compound 366]	+++ (pIC50 ≧ 6.00)	+++ (pIC50 ≧ 6.00)	+++ (pIC50 ≧ 6.00)	+++ (pIC50 ≧ 6.00)
CC(=O)N1CCN(Cc2c(-c3ccc(Cl)cc3Cl)nc3ccc(N(C(F)F)S(C)(=O)=O)cn23)CC1 [Compound 367]	+++ (pIC50 ≧ 6.00)	+++ (pIC50 ≧ 6.00)	+++ (pIC50 ≧ 6.00)	+++ (pIC50 ≧ 6.00)
CC(=O)N1CCN(Cc2c(-c3ccc(Cl)cc3)nc3ccc(N(C(F)F)S(C)(=O)=O)cn23)CC1 [Compound 368]	+++ (pIC50 ≧ 6.00)	+++ (pIC50 ≧ 6.00)	+++ (pIC50 ≧ 6.00)	+++ (pIC50 ≧ 6.00)
Cn1cc(C(=O)N2CCN(Cc3c(-c4ccc(Cl)cc4Cl)nc4ccc(NS(C)(=O)=O)cn34)CC2)cn1 [Compound 369]	++ (pIC50 5.00-5.99)	+++ (pIC50 ≧ 6.00)	+++ (pIC50 ≧ 6.00)	+++ (pIC50 ≧ 6.00)
CN(c1ccc2nc(-c3ccc(Cl)cc3Cl)c(CN3CCN(C(=O)c4ccnnc4)CC3)n2c1)S(C)(=O)=O [Compound 370]	+++ (pIC50 ≧ 6.00)	+++ (pIC50 ≧ 6.00)	+++ (pIC50 ≧ 6.00)	+++ (pIC50 ≧ 6.00)
